The values that follow come from paper PMC5741663, “Antimicrobial peptide capsids of de novo design” (Nature Communications, 2017).

Format in all cases: cell-based
One data set has as its system Human erythrocytes. The data set can be described thus: Haemolysis assay. Particulars: 10% (vol/vol) human erythrocytes in PBS pH 7.2, 1 h at room temperature, absorbance 550 nm; triplicates. On the procedure:
Haemolysis was determined by incubating a 10% (vol/vol) suspension of human erythrocytes with peptides. Erythrocytes were rinsed four times in 10 mM phosphate buffer saline (PBS), pH 7.2, by repeated centrifugation and re-suspension (3 min at 3000×g). Erythrocytes were incubated at room temperature for 1 h in either deionised water (fully haemolysed control), PBS, or with peptide in PBS. After centrifugation at 10,000×g for 5 min, the supernatant was separated from the pellet, and the absorbance was measured at 550 nm. Absorbance of the suspension treated with deionised water defined complete haemolysis.

The test system of the next data set is S. enterica (ATCC700720). As for the experimental part: MICs were determined by broth microdilution on different bacteria according to the Clinical and Laboratory Standards Institute. […] The absorbance was measured after peptide addition at 600 nm using a Victor 2 plate reader (Perkin-Elmer).
In a further data set the test system is E. coli (K12). As for the experimental part: (§1) MICs were determined by broth microdilution on different bacteria according to the Clinical and Laboratory Standards Institute. Typically, 100 μL of 0.5–1 × 10^6 CFU mL^–1 of each bacterium in Mueller Hinton media broth (Oxoid) were incubated in 96-well microtitre plates with 100 μL of serial two-fold dilutions of the peptides (from 100 to 0 μM) at 37 °C on a 3D orbital shaker. The absorbance was measured after peptide addition at 600 nm using a Victor 2 plate reader (Perkin-Elmer). MICs were defined as the lowest peptide concentration after 24 h at 37 °C.

The next data set has as its system E. faecalis (OG1X). On the procedure: as §1
The test system of a further data set is B. subtilis (ATCC6633). As for the experimental part: as §1
The subject of a further data set is S. aureus (ATCC6538). As for the experimental part:
as §1

Data set [1] deals with P. aeruginosa (ATCC27853). On the procedure: as §1
In data set [2] the test system is K. pneumoniae (NCTC 5055). As for the experimental part: MICs were determined by broth microdilution on different bacteria according to the Clinical and Laboratory Standards Institute. […] The absorbance was measured after peptide addition at 600 nm using a Victor 2 plate reader (Perkin-Elmer). MICs were defined as the lowest peptide concentration after 24 h at 37 °C.

The mark [3] stands for this setting: S. enterica (ATCC700720), Mueller Hinton broth, 0.5–1 × 10^6 CFU mL–1, 24 h at 37 °C, absorbance 600 nm, total peptide concentration, triplicates.

Values after ≈ are worked out from the molar mass of the structure shown. Read-outs that look alike come from different tables or passages of the source. Marks after values point to notes of the source that are not given here. Starred links: 1 amine or outer side, 2 acyl side, 3 side chain; linkers in the order of their positions; H or OH if unused. Positions of bridges follow the written chain, without caps; N, C: chain ends. Non-standard residues stand in square brackets, D forms with d. Residues, ends and D or L forms follow the SMILES beside them. Chains are numbered I, II in the order given. *: point of attachment. X1 = CC(=O)N[C@@H](CCCCN[*:3])C(=O)NCCC(=O)N[C@@H](CCCCN[*:2])C(=O)NCCC(=O)N[C@@H](CCCCN[*:1])C(N)=O; X2 = CC[C@H](C)CCCCC(=O)*; Orn = NCCC[C@H](N)C(=O)O; Dab = NCC[C@H](N)C(=O)O; βAla = NCCC(=O)O

Consider `CCCCCCCCCC(=O)N[C@@H](Cc1c[nH]c2ccccc12)C(=O)N[C@H](CC(N)=O)C(=O)N[C@@H](CC(=O)O)C(=O)N[C@@H]1C(=O)NCC(=O)N[C@@H](CCCN)C(=O)N[C@@H](CC(=O)O)C(=O)N[C@H](C)C(=O)N[C@@H](CC(=O)O)C(=O)NCC(=O)N[C@H](CO)C(=O)N[C@@H]([C@H](C)CC(=O)O)C(=O)N[C@@H](CC(=O)c2ccccc2N)C(=O)O[C@@H]1C` [Daptomycin], for which the “LC50, median (50%) cell death compared to untreated cells” value with Human erythrocytes was >250^d µM. Moreover, the Minimum inhibitory concentrations in the data set on S. enterica (ATCC700720) (setting [3]) is on record as above 50 µM; with E. coli (K12) (K12, 24 h), above 100 µM; in the data set with E. faecalis (OG1X) (OG1X, 24 h) it was above 100 µM; with B. subtilis (ATCC6633) (ATCC6633, 24 h), below 8 µM; in the data set on S. aureus (ATCC6538) (ATCC6538, 24 h), below 8 µM; in data set [1] (ATCC27853, 24 h), above 100 µM.
Take `CC(C)C[C@@H]1NC(=O)[C@H](CCCN)NC(=O)[C@H](C(C)C)NC(=O)[C@@H]2CCCN2C(=O)[C@@H](Cc2ccccc2)NC(=O)[C@H](CC(C)C)NC(=O)[C@H](CCCN)NC(=O)[C@H](C(C)C)NC(=O)[C@@H]2CCCN2C(=O)[C@@H](Cc2ccccc2)NC1=O` [Gramicidin S] (cyclo(V[Orn]L[dF]PV[Orn]L[dF]P)): the “LC50, median (50%) cell death compared to untreated cells” value in the data set with Human erythrocytes is above 20 µM. Moreover, the Minimum inhibitory concentrations with S. enterica (ATCC700720) (setting [3]) is recorded as below 10 µM; with E. coli (K12) (K12, 24 h), below 20 µM; in the data set with B. subtilis (ATCC6633) (ATCC6633, 24 h) it was above 40 µM; in the data set with S. aureus (ATCC6538) (ATCC6538, 24 h), below 20 µM; in data set [1] (ATCC27853, 24 h), above 40 µM.
Consider `CC[C@H](C)CCCCC(=O)N[C@@H](CCN)C(=O)N[C@H](C(=O)N[C@@H](CCN)C(=O)N[C@H]1CCNC(=O)[C@H]([C@@H](C)O)NC(=O)[C@H](CCN)NC(=O)[C@H](CCN)NC(=O)[C@H](CC(C)C)NC(=O)[C@@H](Cc2ccccc2)NC(=O)[C@H](CCN)NC1=O)[C@@H](C)O` [Polymyxin B] (X2-[Dab]T[Dab][Dab][Dab][dF]L[Dab][Dab]T; lactam 4-C (inferred); N-terminus assumed), for which the Minimum inhibitory concentrations in the data set with S. enterica (ATCC700720) (setting [3]) is on record as below 1 µM; in data set [2] (K. pneumoniae (NCTC 5055), Mueller Hinton broth, 0.5–1 × 10^6 CFU mL–1, 24 h at 37 °C, absorbance 600 nm, total peptide concentration, triplicates) it was below 1 µM; with E. coli (K12) (E. coli (K12), Mueller Hinton broth, 0.5–1 × 10^6 CFU mL–1, 24 h at 37 °C, absorbance 600 nm, total peptide concentration, triplicates), below 1 µM; in the data set with E. faecalis (OG1X) (E. faecalis (OG1X), Mueller Hinton broth, 0.5–1 × 10^6 CFU mL–1, 24 h at 37 °C, absorbance 600 nm, total peptide concentration, triplicates), above 100 µM; in the data set on B. subtilis (ATCC6633) (B. subtilis (ATCC6633), Mueller Hinton broth, 0.5–1 × 10^6 CFU mL–1, 24 h at 37 °C, absorbance 600 nm, total peptide concentration, triplicates) it was 1.5 µM (≈ 1.81 µg/mL); with S. aureus (ATCC6538) (S. aureus (ATCC6538), Mueller Hinton broth, 0.5–1 × 10^6 CFU mL–1, 24 h at 37 °C, absorbance 600 nm, total peptide concentration, triplicates) it was below 50 µM. The compound further displayed a Minimum inhibitory concentrations in data set [1] (P. aeruginosa (ATCC27853), Mueller Hinton broth, 0.5–1 × 10^6 CFU mL–1, 24 h at 37 °C, absorbance 600 nm, total peptide concentration, triplicates) below 1 µM.
On to “I: H-KIAKLKQKIQKLKAKIAKLKQ[βAla][βAla] / II: H-KIAKLKQKIQKLKAKIAKLKQ[βAla][βAla] / III: H-KIAKLKQKIQKLKAKIAKLKQ[βAla][βAla] (linker I:C-II:C-III:C via X1) [C 3 (+) strand]”, for which the Minimum inhibitory concentrations was 3 µM in the data set on S. enterica (ATCC700720) (ATCC700720, 24 h); above 12 µM in data set [2] (NCTC 5055, 24 h); 1.5 µM in the data set on E. coli (K12) (K12, 24 h); 50 µM in the data set with E. faecalis (OG1X) (OG1X, 24 h); 1.5 µM with B. subtilis (ATCC6633) (ATCC6633, 24 h); 50 µM in the data set on S. aureus (ATCC6538) (ATCC6538, 24 h). The Minimum inhibitory concentrations in data set [1] (ATCC27853, 24 h) is 3 µM.
